The text below walks through data of patent US20040029910A1, “Protoberberine derivatives which inhibit activity of the mitogen-activated protein kinase” (priority 2000, published 2004).

For one experiment, the target named is T1, Spc1 kinase (Schizosaccharomyces pombe, UniProt Q09892).
T1 construct: The genes wis1 and spc1 were cloned into the pRep1 vector containing nmt1 promoter; made in house; host or cells: Schizosaccharomyces pombe KGY246 (pRep1 vector, nmt1 promoter)
T1 sequence (Q09892 1-349): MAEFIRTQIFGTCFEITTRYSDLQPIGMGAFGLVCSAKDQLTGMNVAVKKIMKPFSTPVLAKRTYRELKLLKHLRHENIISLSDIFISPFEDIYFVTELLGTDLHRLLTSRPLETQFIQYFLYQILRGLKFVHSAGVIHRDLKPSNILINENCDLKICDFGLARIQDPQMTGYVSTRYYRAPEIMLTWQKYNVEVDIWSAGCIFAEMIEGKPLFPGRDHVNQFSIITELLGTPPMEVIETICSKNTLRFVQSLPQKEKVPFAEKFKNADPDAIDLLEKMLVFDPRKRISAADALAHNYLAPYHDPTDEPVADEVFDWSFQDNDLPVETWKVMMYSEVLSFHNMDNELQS
Nature of the experiment: Spc1 kinase activity, myelin basic protein substrate ([γ-32P]ATP, SDS-PAGE, FIG. 3). It counts as biochemical. The following applies: purified GST-Spc1, myelin basic protein as substrate. The protocol: The genes wis1 and spc1 were cloned into the pRep1 vector containing nmt1 promoter of which expression was inhibited by thiamin in the medium and able to tag GST. The KGY246 cells, wild type Schizosaccharomyces pombe cells were transformed with this plasmid. The expression of Wis1 and Spc1 kinase tagged with GST was induced by the cultivation of the transformed cells in MM^AU medium containing 0.4 mM thiamin followed by cultivation to exponential phase(5×10^6 cells) for about 20 hours in 100 mL of MM^AU medium in which thiamin was withdrawn. […]
Before Wis1 and Spc1 kinases purified in example 4 were analyzed, they were pre-incubated in analyzing buffer of kinase (50 mM Tris-Cl pH7.4, 20 mM MgCl2, 5 mM EGTA, 2 mM Na vanadate, 1 mM DTT). […] Therefore, the degree of Wis1 autophosphorylation was also measured.

Another experiment concerns the target T2, Wis1 kinase (Schizosaccharomyces pombe, UniProt P33886).
T2 construct: The genes wis1 and spc1 were cloned into the pRep1 vector containing nmt1 promoter; made in house; host or cells: Schizosaccharomyces pombe KGY246 (pRep1 vector, nmt1 promoter)
T2 sequence (P33886 1-605): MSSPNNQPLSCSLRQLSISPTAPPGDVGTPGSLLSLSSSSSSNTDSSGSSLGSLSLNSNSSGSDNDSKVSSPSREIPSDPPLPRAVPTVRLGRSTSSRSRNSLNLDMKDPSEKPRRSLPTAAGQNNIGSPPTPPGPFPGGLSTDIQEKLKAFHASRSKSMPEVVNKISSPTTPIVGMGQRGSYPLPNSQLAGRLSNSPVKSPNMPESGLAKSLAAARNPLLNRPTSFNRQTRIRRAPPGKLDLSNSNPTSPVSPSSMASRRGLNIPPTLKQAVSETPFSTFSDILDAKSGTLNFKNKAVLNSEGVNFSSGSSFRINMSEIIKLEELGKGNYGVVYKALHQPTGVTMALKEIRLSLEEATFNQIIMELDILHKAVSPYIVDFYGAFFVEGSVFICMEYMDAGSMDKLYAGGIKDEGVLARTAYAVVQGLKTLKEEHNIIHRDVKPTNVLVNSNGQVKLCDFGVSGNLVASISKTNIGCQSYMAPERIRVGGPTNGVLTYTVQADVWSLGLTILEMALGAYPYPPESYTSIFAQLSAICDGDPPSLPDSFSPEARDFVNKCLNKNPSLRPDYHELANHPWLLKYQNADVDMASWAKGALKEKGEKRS
Nature of the experiment: Wis1 kinase activity and autophosphorylation ([γ-32P]ATP, SDS-PAGE, FIG. 2). It counts as biochemical. Conditions: purified GST-Wis1, kinase reaction 30° C. 30 minutes, autophosphorylation also measured. The protocol:
The genes wis1 and spc1 were cloned into the pRep1 vector containing nmt1 promoter of which expression was inhibited by thiamin in the medium and able to tag GST. The KGY246 cells, wild type Schizosaccharomyces pombe cells were transformed with this plasmid. The expression of Wis1 and Spc1 kinase tagged with GST was induced by the cultivation of the transformed cells in MM^AU medium containing 0.4 mM thiamin followed by cultivation to exponential phase(5×10^6 cells) for about 20 hours in 100 mL of MM^AU medium in which thiamin was withdrawn. After osmotic shock(0.6M KCl) and oxidative stress were given to the cells expressing Wis1 and Spc1 tagged with GST for 25 minutes, cells were recovered at 4° C., washed with ice-cold PBS/NaF(50 mM)/NaN3(1 mM) buffer and HB buffer(25 mM HEPES, pH 7.5, 60 mM β-glycerophosphate, 15 mM EGTA, 0.1 mM Na vanadate, 0.1% triton and hydrolyzed using glass bead and bead beater purchased from Sigma. The supernatant of hydrolyzed cells was incubated with 100 mM NaCl for salting-out to remove unnecessary proteins. After the supernatant was incubated with 0.045 g/ml GST beads for 1.5 hours, proteins not bound to GST beads were removed. Purified Wis1 and Spc1 kinases were separated on 7% SDS-PAGE and the degree of purification was confirmed by western blotting using GST antibody.
Before Wis1 and Spc1 kinases purified in example 4 were analyzed, they were pre-incubated in analyzing buffer of kinase (50 mM Tris-Cl pH7.4, 20 mM MgCl2, 5 mM EGTA, 2 mM Na vanadate, 1 mM DTT). The kinase reaction was performed at 30° C. for 30 minutes in the presence of 1 mg/ml myelin basic protein(MBP), 1 mM ATP and 20 uCi of [γ-^32p]ATP and then terminated by adding SDS sample buffer and heating at 90° C. for 5 minutes. The reaction mixtures were separated on SDS-polyacrylamide gel electrophoresis. After fixation with 10% acetic acid: 10% methanol and drying, the gel was exposed on X-ray film. When Wis1 is activated by stimulus, it also activates autophosphorylation. Therefore, the degree of Wis1 autophosphorylation was also measured.

The next experiment has as its system KGY246 (wild type). Nature of the experiment: Growth (cell number) of wild type strain KGY246. It counts as cell-based, Schizosaccharomyces pombe. As to the method:
To investigate the effect of protoberberine derivatives on the growth of cells, the cells of each strain were cultured in rich medium YE^AU to exponential phase(5×10^7 cells/mL). These cells were transferred to YE^AU medium and cultured for 12 hours. Then cell number was measured every 3 hours.

For the compound `CCCOc1cc2c(cc1OCCC)-c1cc3ccc(OCCC)c(OCCC)c3c[n+]1CC2.[I-]` [2,3,9,10-tetrapropoxyprotoberberine iodide], on Spc1 kinase, the “inhibition of Spc1 kinase activity (in words)” value is reported as “directly inhibited”.
For `COc1ccc2c(Cc3ccc(O[Si](C)(C)C(C)(C)C)cc3)c3[n+](cc2c1OC)CCc1cc2c(cc1-3)OCO2.[Cl-]` [13-(4-(t-butyldimethylsilyloxy)benzyl)berberine chloride], the “inhibition of Wis1 kinase activity (in words)” value against Wis1 kinase was “directly inhibited”. Also, the cell number in the experiment on KGY246 (wild type) (Table 2, KGY246, time 14) was determined as 20; with KGY246 (wild type) (Table 2, KGY246, time 17), 19; in the experiment with KGY246 (wild type) (Table 2, KGY246, time 20), 22; in the experiment on KGY246 (wild type) (Table 2, KGY246, time 23), 16.
With `COc1ccc2c(Cc3ccc(C(C)(C)C)cc3)c3[n+](cc2c1OC)CCc1cc2c(cc1-3)OCO2.[Cl-]` [13-(4-t-butylbenzyl)berberine chloride], at Wis1 kinase, the “inhibition of Wis1 kinase activity (in words)” value is “directly inhibited”.
